Reference: patent US7332615B2, “Hydrophilic analogs of 4,8-dihydrobenzodithiophene-4,8-diones as anticancer agents” (Industrial Technology Research Institute, priority 2004, dated 2008)
Counter-ions that a name gives are not always drawn. Like-named read-outs stand apart in the source and are kept apart here.

Experiments:
[1] = Cytotoxicity Assays Method A (alamarBlue anti-proliferative assay), HUVEC; format: cell-based; conditions: human, HUVEC (human umbilical vein endothelial cells), 72-hour incubation, alamarBlue
Text: (§1) Cytotoxicity Assays Method A (HUVEC, MCF-7, HT-29, Hep 3B and NCl-H460) [S. A. Ahmed, R. M. Gogal Jr., and J. E. Walsh, Journal of Immunological Methods 170: 211-224, (1994): M. R. Boyd, Status of the NCl preclinical antitumor drug discovery screen. (Published by J. B. Lippincoft Company, Philadelphia, Pa. 19105, USA) Principles & Practices of Oncology Updates 3 # 10: 1-12, (1989); M. R. Boyd, et al. Data display and analysis strategies for the NCl disease-oriented in vitro antitumor drug screen. In: Cytotoxic anti-cancer drugs: models and concepts for drug discovery and development. Boston: Kluwer Academic, Pages; 11-34, (1992)]
(§2) The test compounds were dissolved in 100% DMSO and then diluted with sterile distilled water to obtain initial working solutions of 20000, 2000, 200, 20 and 2 μM in 80% DMSO. A 200 fold dilution was further made in culture media to generate final assay concentrations of 100, 10, 1, 0.1 and 0.01 μM in 0.4% DMSO.
(§3) Aliquots of 100 μl of cell suspension (about 1.5-3.0×10^3/well) were placed in 96-well microtiter plates in an atmosphere of 5% CO2 at 37° C. After 24 hours, 100 μl of growth medium and 1 μl of test solution or vehicle (80% DMSO) were added respectively per well in duplicate for an additional 72-hour incubation. Thus, the final concentration of DMSO was 0.4%. The test compounds, IIa-1, IIb-1 and VII-1 were evaluated at concentrations of 100, 10, 1, 0.1 and 0.01 μM. At the end of incubation, 20 μl of alamarBlue 90% reagent was added to each well for another 6-hour incubation before detection of cell viability by fluorescent intensity. Fluorescent intensity was measured using a Spectraflour Plus plate reader with excitation at 530 nm and emission at 590 nm.
(§4) The measured results was calculated by the following formula: PG(%)=100×(Mean Ftest−Mean Ftime0)/(Mean Fctrl−Mean Ftime0)] If(Mean Ftest−Mean Ftime0)<0, then PG(%)=100×(Mean Ftest−Mean Ftime0)/(Mean Ftime0−Mean Fblank) wherein PG represents percent growth;
(§5) A decrease of 50% or more (≧50%) in fluorescent intensity relative to the vehicle-treated control indicates significant cytostatic or cytotoxic activity, and semi-quantitative values for IC50, TGI and LC50 were then determined by nonlinear regression using GraphPad Prism (GraphPad Software, USA).
(§6) IC50 (50% Inhibition Concentration); Test compound concentration where the increase from times in the number or mass of treated cells was only 50% as much as the corresponding increase in the vehicle-control at the end of experiment.
(§7) TGI (Total Growth Inhibition): Test compound concentration where the number or mass of treated cells at the end of experiment was equal to that at time0.
(§8) LC50 (50% Lethal Concentration): Test compound concentration where the number or mass of treated cells at the end of experiment was half that at time.
(§9) The assays were used to detect changes in cell proliferation based on the ability of viable cells to cause alamarBlue to change from its oxidized to a reduced form. With the results obtained from the alamarBlue reaction, cell proliferation can be quantified and metabolic activity of viable cell can be examined.
(§10) The succinate derivatives of compounds IIa-1, IIb-1 and VII-1 were tested for possible effect on the proliferation of four human tumor cell lines ˜MCF-7 (breast), HT-29 (colon), Hep3B (liver), and NCl—H 460 (lung) as well as one human umbilical vein endothelial cell (HUVEC) at assay concentration from 0.01 to 100 μM, through serial 10-fold dilution.

HUVEC = assay: as above; format: cell-based; conditions: for TGI (Total growth Inhibition): 72-hour incubation, alamarBlue; for IC50: Homo sapiens, 72 h, read-out: IC50 (50% Inhibition Concentration)
Text: as §1, §2, §3, §4, §5, §6, §7, §8, §9, §10

MCF-7 = assay: Cytotoxicity Assays Method A (alamarBlue anti-proliferative assay), MCF-7; format: cell-based; conditions: for IC50 / CC50: Homo sapiens; for IC50: MCF7, 72 h, read-out: IC50 (50% Inhibition Concentration); for CC50: MCF7, read-out: LC50 (50% Lethal Concentration); for CC50 / TGI (Total growth Inhibition): MCF-7, 72-hour incubation, alamarBlue; for cytotoxicity against MCF-7 (in words): MCF-7, summary of Table 1
Text: as §1, §2, §3, §4, §5, §6, §7, §8, §9, §10

HT-29 = assay: Cytotoxicity Assays Method A (alamarBlue anti-proliferative assay), HT-29; format: cell-based; conditions: for TGI (Total growth Inhibition) / LC50 (50% lethal concentration): HT-29, 72-hour incubation, alamarBlue; for IC50 / LC50 (50% lethal concentration): Homo sapiens; for IC50: HT-29, 72 h, read-out: IC50 (50% Inhibition Concentration)
Text: as §1, §2, §3, §4, §5, §6, §7, §8, §9, §10

Hep 3B = assay: Cytotoxicity Assays Method A (alamarBlue anti-proliferative assay), Hep 3B; format: cell-based; conditions: for cytotoxicity against Hep3B (in words): summary of Table 1; for TGI (Total growth Inhibition) / CC50: Hep-3B, 72-hour incubation, alamarBlue; for IC50 / CC50: Homo sapiens; for cytotoxicity against Hep3B (in words) / IC50 / CC50: Hep3B; for IC50: 72 h, read-out: IC50 (50% Inhibition Concentration); for CC50: read-out: LC50 (50% Lethal Concentration)
Text: as §1, §2, §3, §4, §5, §6, §7, §8, §9, §10

NCI-H460 = assay: Cytotoxicity Assays Method A (alamarBlue anti-proliferative assay), NCI-H460; format: cell-based; conditions: for IC50 / CC50: Homo sapiens; for IC50: NCI-H460, 72 h, read-out: IC50 (50% Inhibition Concentration); for CC50 / TGI (Total growth Inhibition): NCI-H460, 72-hour incubation, alamarBlue; for CC50: read-out: LC50 (50% Lethal Concentration)
Text: as §1, §2, §3, §4, §5, §6, §7, §8, §9, §10

[2] = system: Human promyeloid leukemia HL-60 cells; assay: Cytotoxicity Assays Method B (MTT proliferation assay), HL-60; format: cell-based; conditions: for IC50: Homo sapiens, read-out: IC50 (concentration at which 50% of the cells are inhibited from growing)
Method: Cytotoxicity Assays Method B (HL-60) [H. M. Chen et al. Chin. Pharm. J. 53, 157-167 (2001)]
Human promyeloid leukemia HL-60 cells were obtained from the American Type
Culture Collection (Manassas, Va., USA) and the Culture Collection and Research Center(CCRC) (Tai wan, ROC). Human promyeloid leukemia HL-60 cells were cultured in suspension in RPMI-1640 medium (GIBCO, Grand Is land, USA), containing 10% fetal bovine se rum (GIBCO, Grand Is land, USA), 100 unit/mL penicillin, […] streptomycin and 1% L-glutamine at 37° C. in a humidified atmosphere of 5% CO2 in air. Cells were split every day to maintain the cell numbers between 2−5×10^5/mL. Cell numbers were assessed by the standard procedure of leukocyte counting using a hemocytometer and cell viability was checked by the ability of cells to exclude Trypan blue.
Cellular proliferation was determined by the MTT [3-(4,5-dimethylthiazol-2-yl)-2,5-diphenyltetrazolium bromide] as say. Briefly, […] of MTT (5 mg/mL) was added to each well of 96-well plates containing 1×10^5 cells after treatment with different concentrations of samples for 4 days. The reaction was stopped after 2 h by adding […] of 0.04 N HCl in isopropanol and the OD570 nm was determined by a minicolorimetric reader. Each concentration treatment was performed in triplicate.

[3] = system: epidermoid carcinoma of the nasopharynx (KB); assay: Cytotoxicity Assays Method C, KB; format: cell-based; conditions: read-out: IC50 KB
[4] = system: p-gp-expressing epidermoid carcinoma of the nasopharynx (KB-VIN); assay: Cytotoxicity Assays Method C, KB-VIN; format: cell-based; conditions: for IC50: 50% reduction in cell number after 72 hr of incubation; for activity against the MDR cell line KB-VIN (in words): summary of Table 3
Text: Cytotoxicity Assays Method C (KB, KB-VIN, AS49, HCT-8, PC-3) [K. H. Lee et. al. Planta Med. 54, 308-312 (1998), Monk A et. al. J. Natl. Cancer Inst. 83, 757-766 (1991).] The cell lines included epidermoid caninoma of the nasopharynx (KB), p-gp-expressing epidermoid caninoma of the nasopharynx (KB-VIN), lung carcinoma (A-549), ileocecal carinoma (HCT-8) and prostate cancer (PC-3) cell lines.

lung carcinoma (A-549) = assay: Cytotoxicity Assays Method C, A-549; format: cell-based; conditions: read-out: IC50 A549
[5] = system: ileocecal carcinoma (HCT-8); assay: Cytotoxicity Assays Method C, HCT-8; format: cell-based; conditions: Homo sapiens, HCT-8, 72 h, read-out: IC50 HCT-8
prostate cancer (PC-3) = assay: Cytotoxicity Assays Method C, PC-3; format: cell-based; conditions: for IC50: read-out: IC50 PC-3; for activity against the androgen-insensitive prostate cancer cell line PC-3 (in words): PC-3, summary of Table 3
Water solubility = format: physicochemical; conditions: water; in H2O
[6] = 96 h, HL-60, MTT, treatment for 4 days
[7] = HCT-8, 50% reduction in cell number after 72 hr of incubation

Compound | LC50 (50% lethal concentration) at 72 h [1] | TGI (Total growth Inhibition) (HUVEC) | IC50 (HUVEC) | IC50 (MCF-7) | CC50 (MCF-7) | TGI (Total growth Inhibition) (MCF-7) | cytotoxicity against MCF-7 (in words) (MCF-7) | TGI (Total growth Inhibition) (HT-29) | IC50 (HT-29) | LC50 (50% lethal concentration) (HT-29) | cytotoxicity against Hep3B (in words) (Hep 3B) | TGI (Total growth Inhibition) (Hep 3B) | IC50 (Hep 3B) | CC50 (Hep 3B) | IC50 ([3]; 72 h) | IC50 ([4]; Homo sapiens, KBVIN, 72 h) | IC50 (lung carcinoma (A-549); Homo sapiens, A549, 72 h) | IC50 [5] | IC50 (prostate cancer (PC-3); 72 h) | IC50 [2, 6] | also measured
O=C(O)CCC(=O)OCc1cc2c(s1)C(=O)c1sccc1C2=O [IIa-1, Mono-[1-(4,8-dioxo-4,8-dihydrobenzo[1,2-b:5,4-b′]dithiophen-2-yl)-methyl]succinate] | 34000 nM | 19000 nM | 10000 nM | 3400 nM | 14000 nM | 6900 nM | significant activity | 22000 nM | 11000 nM | 45000 nM | significant activity | 5100 nM | 2800 nM | 9200 nM | 2020 nM | 4470 nM | 4030 nM | 4030 nM | 1350 nM | – | IC50 (NCI-H460): 810 nM; CC50 (NCI-H460): 3500 nM; TGI (Total growth Inhibition) (NCI-H460): 1700 nM; IC50 ([2]; HL-60, 96 h): 470 nM
CC(OC(=O)CCC(=O)O)c1cc2c(s1)C(=O)c1sccc1C2=O (stereo not shown) [IIb-1, Mono-[1-(4,8-dioxo-4,8-dihydrobenzo[1,2-b:5,4-b′]dithiophen-2-yl)-ethyl]succinate] | 89000 nM | 31000 nM | 11000 nM | 820 nM | 27000 nM | 4700 nM | significant activity | 2000 nM | 4300 nM | 89000 nM | significant activity | 1800 nM | 1100 nM | 2900 nM | 470 nM | 250 nM | 580 nM | 910 nM | 220 nM | – | IC50 (NCI-H460): 640 nM; CC50 (NCI-H460): 2100 nM; TGI (Total growth Inhibition) (NCI-H460): 1200 nM; IC50 ([2]; HL-60, 96 h): 260 nM; activity against the MDR cell line KB-VIN (in words) [4]: potent activity; activity against the androgen-insensitive prostate cancer cell line PC-3 (in words) (prostate cancer (PC-3)): potent activity
CC(OCC(=O)O)c1cc2c(s1)C(=O)c1ccsc1C2=O (stereo not shown) [IX, 1-(4,8-Dioxo-4,8-dihydroxybenzo[1,2-b:4,5-b′]-dithiophen-2-yl-ethoxy)-acetic acid] | – | – | – | – | – | – | – | – | – | – | – | – | – | – | – | – | – | – | – | 2580 nM | IC50 ([3]; KB, 50% reduction in cell number after 72 hr of incubation): 19800 nM; IC50 [4]: 18200 nM; IC50 (lung carcinoma (A-549); A549, 50% reduction in cell number after 72 hr of incubation): 2600 nM; IC50 [5, 7]: 240 nM; IC50 (prostate cancer (PC-3); PC-3, 50% reduction in cell number after 72 hr of incubation): 2510 nM
CC(OC(=O)CCCC(=O)O)c1cc2c(s1)C(=O)c1ccsc1C2=O (stereo not shown) [VII-2, Mono-[1-(4,8-dioxo-4,8-dihydroxybenzo[1,2-b;4,5-b′]dithiophen-2-yl)-ethyl]pentanedioate] | – | – | – | – | – | – | – | – | – | – | – | – | – | – | 80 nM | – | 510 nM | 480 nM | 60 nM | 280 nM | IC50 [4]: 240 nM; activity against the MDR cell line KB-VIN (in words) [4]: potent activity; activity against the androgen-insensitive prostate cancer cell line PC-3 (in words) (prostate cancer (PC-3)): potent activity
CN(C)CCNC(=O)c1cc2c(s1)C(=O)c1ccsc1C2=O [XV-2-H3PO4, 4,8-dioxo-4,8-dihydrobenzo[1,2-b;4,5-b′]dithiophene-2-carboxylate-(2-dimethyl-aminoethyl)-amide phosphoric acid salt] | – | – | – | – | – | – | – | – | – | – | – | – | – | – | – | 10 nM | – | – | – | 50 nM | cytotoxicity against HL-60 (in words) ([2]; HL-60, summary of Table 2): the most potent one; IC50 ([3]; 72 h, KB, 50% reduction in cell number after 72 hr of incubation): 60 nM; IC50 (lung carcinoma (A-549); Homo sapiens, A549, 72 h, A549, 50% reduction in cell number after 72 hr of incubation): 10 nM; IC50 [5, 7]: 10 nM; IC50 (prostate cancer (PC-3); 72 h, PC-3, 50% reduction in cell number after 72 hr of incubation): 10 nM; solubility (Water solubility): ≥ 4000 µg/mL
